Literature values in US10316053B2, “Flavonoid compounds and uses thereof” (ARMARON BIO PTY LTD, priority 2012, dated 2019).

System: myocardial ischaemia and reperfusion
Details: in vitro studies; Wang et al., Br J Pharmacol (2004) 142, 443-452

## O=c1c(O)c(-c2ccc(O)c(O)c2)oc2ccccc12 [DiOHF, 3′,4′-dihydroxy flavonol]
  infarct and injury associated with myocardial ischaemia and reperfusion: reduce infarct and injury
